In patent US20230183243A1, “HETEROARYL DERIVATIVES AND PHARMACEUTICAL COMPOSITION COMPRISING SAME AS ACTIVE INGREDIENT” (VORONOI INC., priority 2019, published 2023):
pIC50: −log10 of the molar value.

Legend:
TTK = biological target: T1, TTK (Homo sapiens, UniProt P33981); assay: TTK enzyme activity, ADP-Glo kinase assay; format: biochemical; set-up: purchased SignalChem T20-10G; settings: purified human TTK, ATP 10 μM, 25° C., 2 hours
T1 sequence (P33981 1-857): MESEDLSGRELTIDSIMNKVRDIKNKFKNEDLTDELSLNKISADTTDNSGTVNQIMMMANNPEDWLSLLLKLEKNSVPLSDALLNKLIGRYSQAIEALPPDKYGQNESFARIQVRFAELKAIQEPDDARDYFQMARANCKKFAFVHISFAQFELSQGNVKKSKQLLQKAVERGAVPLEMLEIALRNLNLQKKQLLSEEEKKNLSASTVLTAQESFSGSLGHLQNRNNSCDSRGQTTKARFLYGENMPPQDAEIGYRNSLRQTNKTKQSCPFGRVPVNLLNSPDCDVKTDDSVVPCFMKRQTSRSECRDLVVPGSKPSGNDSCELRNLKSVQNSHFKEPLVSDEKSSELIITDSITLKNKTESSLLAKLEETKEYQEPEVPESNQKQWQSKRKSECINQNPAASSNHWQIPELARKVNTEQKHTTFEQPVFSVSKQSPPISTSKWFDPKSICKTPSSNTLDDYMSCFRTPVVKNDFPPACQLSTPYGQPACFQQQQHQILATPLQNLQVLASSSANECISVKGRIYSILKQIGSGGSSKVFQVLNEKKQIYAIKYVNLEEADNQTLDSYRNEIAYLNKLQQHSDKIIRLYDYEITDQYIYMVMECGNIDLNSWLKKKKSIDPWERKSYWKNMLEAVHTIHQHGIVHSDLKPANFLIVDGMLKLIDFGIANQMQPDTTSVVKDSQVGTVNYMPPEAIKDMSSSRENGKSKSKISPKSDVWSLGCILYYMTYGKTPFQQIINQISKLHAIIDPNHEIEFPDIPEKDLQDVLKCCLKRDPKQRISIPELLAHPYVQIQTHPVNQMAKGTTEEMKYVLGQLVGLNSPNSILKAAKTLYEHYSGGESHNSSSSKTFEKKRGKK
Procedure: To evaluate an inhibitory activity of the compound according to the present invention against TTK (MPS1), an experiment was performed as follows.
Each of the Example compounds was reacted with a purified human TTK (SignalChem #T20-10G) enzyme to evaluate an ability to inhibit an enzyme using a method as described below. A composition of 40 mM Tris-HCl (pH 7.4), 20 mM MgCl2, 0.5 mg/mL BSA, and 50 μM DTT was used as a reaction buffer, and all reactions of test substances were performed in the reaction buffer. […] In the test, purified ATP (10 μM) and an enzyme substrate (0.2 μg) were reacted with a human TTK (25 ng) enzyme at 25° C. for 2 hours, and the enzyme activity was determined using an in vitro ADP-Glo™ kinase assay (Promega). […] The degree of inhibition of the enzyme activity according to the treatment concentration of each of the compounds was calculated based on the fluorescence of the enzyme activity of the solvent control which was not treated with the compound.

MDA-MB-231 cells = assay: Inhibition of proliferation of triple-negative breast cancer cells, CellTiter-Glo; format: cell-based; settings: Homo sapiens, 120 h; MDA-MB-231, cultured for 5 days
Procedure: Specifically, the following test was performed in order to evaluate the inhibitory activity of the compound according to the present invention against the cell proliferation in triple-negative breast cancer cells (TNBCs).
Cells were seeded in 180 μL of a culture broth at a density of 2,000 to 3,000 cells/well in a white clear bottom 96-well plate (Corning) according to the growth ability of each cell, and then cultured for 24 hours under conditions of 5% CO2 and 37° C. Thereafter, the compound was prepared by diluting a 10 mM stock solution three-fold with 100% DMSO at a total of 12 concentrations so that a peak concentration of the compound was in a range of 10 mM to 0.05 μM, and the diluted compound was then diluted in each cell culture medium so that a final concentration of the compound was in a range of 100 μM to 0.5 nM. 20 μL of a diluted solution diluted with a medium was added to the cell solution in which cells were seeded in the 96-well plate on the previous day so that a final concentration of the diluted solution was in a range of 10 μM to 0.05 nM. Each of the cells was cultured for 5 days. To check cell viability, a mixture provided in a CellTiter-Glo® Luminescent Cell Viability Assay Kit (Promega) was added to each of the cultured cell media, and cultured for another 10 minutes under a condition of 37° C. Then, a degree of luminescence (fluorescence) was measured. A degree of inhibition of the cell growth according to the treatment concentration of each of the compounds was calculated based on the fluorescence of the solvent control cells which were not treated with the compound.

| SMILES | pIC50 (TTK) | GI50 (MDA-MB-231 cells) [µM] |
| --- | --- | --- |
| CCOc1cc(-c2nncn2C)ccc1Nc1nc(NCCS(C)(=O)=O)c2c(C#N)c[nH]c2n1 [Example 14, 2-((2-ethoxy-4-(4-methyl-4H-1,2,4-triazol-3-yl)phenyl)amino)-4-((2-(methylsulfonyl)ethyl)amino)-7H-pyrrolo[2,3-d] pyrimidine-5-carbonitrile] | > 7.30 | 0.1 to 1 |
| COc1cc(-c2nccs2)ccc1Nc1nc(NC2CCCC2)c2c(C#N)c[nH]c2n1 [Example 17, 4-(cyclopentylamino)-2-((2-methoxy-4-(thiazol-2-yl)phenyl)amino)-7H-pyrrolo[2,3-d] pyrimidine-5-carbonitrile] | 6.00 to 6.70 | < 0.1 |
| COc1cc(-c2c(C)noc2C)ccc1Nc1nc(NC2CCCCC2)c2c(C#N)c[nH]c2n1 [Example 18, 4-(cyclohexylamino)-2-((4-(3,5-dimethylisoxazol-4-yl)-2-methoxyphenyl)amino)-7H-pyrrolo[2,3-d] pyrimidine-5-carbonitrile] | > 7.30 | < 0.1 |
| COc1cc(-c2cnn(C3CCOCC3)c2)ccc1Nc1nc(NC2CCCCC2)c2c(C#N)c[nH]c2n1 [Example 19, 4-(cyclohexylamino)-2-((2-methoxy-4-(1-(tetrahydro-2H-pyran-4-yl)-1H-pyrazol-4-yl)phenyl)amino)-7H-pyrrolo[2,3-d] pyrimidine-5-carbonitrile] | 6.70 to 7.30 | < 0.1 |
| COc1cc(-c2cnn(C3COC3)c2)ccc1Nc1nc(NC2CCCCC2)c2c(C#N)c[nH]c2n1 [Example 20, 4-(cyclohexylamino)-2-((2-methoxy-4-(1-(oxetan-3-yl)-1H-pyrazol-4-yl)phenyl)amino)-7H-pyrrolo[2,3-d] pyrimidine-5-carbonitrile] | > 7.30 | < 0.1 |
| CC(=O)N1CCN(Cc2ccc(-c3ccc(Nc4nc(NC5CCCCC5)c5c(C#N)c[nH]c5n4)cc3)cc2)CC1 [Example 21] | 6.70 to 7.30 | 0.1 to 1 |
| N#Cc1c[nH]c2nc(Nc3ccc(-c4ccc(CN5CCN(C6CC6)CC5)cc4)cc3)nc(NC3CCCCC3)c12 [Example 22, 4-(cyclohexylamino)-2-((4′-((4-cyclopropylpiperazin-l-yl)methyl)-[1,1′-biphenyl]-4-yl)amino)-7H-pyrrolo[2,3-d] pyrimidine-5-carbonitrile] | > 7.30 | 0.1 to 1 |
| COc1cc(-c2ccc(CN3CCN(C(C)=O)CC3)cc2)ccc1Nc1nc(NC2CCCCC2)c2c(C#N)c[nH]c2n1 [Example 23, 2-((4′-((4-acetylpiperazin-1-yl)methyl)-3-methoxy-[1,1′-biphenyl]-4-yl)amino)-4-(cyclohexylamino)-7H-pyrrolo[2,3-d] pyrimidine-5-carbonitrile] | 6.70 to 7.30 | < 0.1 |
| COc1cc(-c2ccc(F)nc2)ccc1Nc1nc(NC2CCCCC2)c2c(C#N)c[nH]c2n1 [Example 24, 4-(cyclohexylamino)-2-((4-(6-fluoropyridin-3-yl)-2-methoxyphenyl)amino)-7H-pyrrolo[2,3-d] pyrimidine-5-carbonitrile] | > 7.30 | < 0.1 |
| CC(C)COc1cc(N2CCCC2=O)ccc1Nc1nc(NC2CCCC2)c2c(C#N)c[nH]c2n1 [Example 28, 4-(cyclopentylamino)-2-((2-isobutoxy-4-(2-oxopyrrolidin-1-yl)phenyl)amino)-7H-pyrrolo[2,3-d] pyrimidine-5-carbonitrile] | 6.00 to 6.70 | > 1 |

More lines, now with the values ahead:

| pIC50 (TTK) | GI50 (MDA-MB-231 cells) [µM] | SMILES |
| --- | --- | --- |
| 6.00 to 6.70 | < 0.1 | COc1cc(-c2cn(C)nn2)ccc1Nc1nc(NC2CCCCC2)c2c(C#N)c[nH]c2n1 [Example 25, 4-(cyclohexylamino)-2-((2-methoxy-4-(1-methyl-1H-1,2,3-triazol-4-yl)phenyl)amino)-7H-pyrrolo[2,3-d] pyrimidine-5-carbonitrile] |
| 6.70 to 7.30 | < 0.1 | COc1cc(-c2ncnn2C)ccc1Nc1nc(NC2CCCCC2)c2c(C#N)c[nH]c2n1 [Example 26, 4-(cyclohexylamino)-2-((2-methoxy-4-(l-methyl-1H-1,2,4-triazol-5-yl)phenyl)amino)-7H-pyrrolo[2,3-d] pyrimidine-5-carbonitrile] |
| > 7.30 | < 0.1 | COc1cc(-c2ncn(C)n2)ccc1Nc1nc(NC2CCCCC2)c2c(C#N)c[nH]c2n1 [Example 27, 4-(cyclohexylamino)-2-((2-methoxy-4-(1-methyl-1H-1,2,4-triazol-3-yl)phenyl)amino)-7H-pyrrolo[2,3-d] pyrimidine-5-carbonitrile] |
| > 7.30 | < 0.1 | COc1cc(-c2cncn2C)ccc1Nc1nc(NC2CCCC2)c2c(C#N)c[nH]c2n1 [Example 30, 4-(cyclopentylamino)-2-((2-methoxy-4-(1-methyl-1H-imidazol-5-yl)phenyl)amino)-7H-pyrrolo[2,3-d] pyrimidine-5-carbonitrile] |
| > 7.30 | < 0.1 | COc1cc(-c2nnc3n2CCC3)ccc1Nc1nc(NC2CCCCC2)c2c(C#N)c[nH]c2n1 [Example 31, 4-(cyclohexylamino)-2-((4-(6,7-dihydro-5H-pyrrolo[2,1-c] [1,2,4]triazol-3-yl)-2-methoxyphenyl)amino)-7H-pyrrolo[2,3-d] pyrimidine-5-carbonitrile] |
| > 7.30 | < 0.1 | COc1cc(N2CCCC2=O)ccc1Nc1nc(O[C@H]2CC[C@@](C)(O)CC2)c2c(C#N)c[nH]c2n1 [Example 32, 4-(((1s,4s)-4-hydroxy-4-methylcyclohexyl)oxy)-2-((2-methoxy-4-(2-oxopyrrolidin-1-yl)phenyl)amino)-7H-pyrrolo[2,3-d] pyrimidine-5-carbonitrile 2,2,2-trifluoroacetate] |
| 6.70 to 7.30 | < 0.1 | Cn1nccc1-c1ccc(Nc2nc(NC3CCCC3)c3c(C#N)c[nH]c3n2)c2c1CCO2 [Example 33, 4-(cyclopentylamino)-2-((4-(1-methyl-1H-pyrazol-5-yl)-2,3-dihydrobenzofuran-7-yl)amino)-7H-pyrrolo[2,3-d] pyrimidine-5-carbonitrile] |
| 6.00 to 6.70 | 0.1 to 1 | COc1cc(-c2ccnn2C)c(C)cc1Nc1nc(NC2CCCC2)c2c(C#N)c[nH]c2n1 [Example 35, 4-(cyclopentylamino)-2-((2-methoxy-5-methyl-4-(1-methyl-1H-pyrazol-5-yl)phenyl)amino)-7H-pyrrolo[2,3-d] pyrimidine-5-carbonitrile] |
| > 7.30 | < 0.1 | Cn1nccc1-c1ccc(Nc2nc(NC3CCCCC3)c3c(C#N)c[nH]c3n2)c2c1OCCO2 [Example 39, 4-(cyclohexylamino)-2-((8-(1-methyl-1H-pyrazol-5-yl)-2,3-dihydrobenzo[b][1,4]dioxin-5-yl)amino)-7H-pyrrolo[2,3-d] pyrimidine-5-carbonitrile] |
| 6.70 to 7.30 | 0.1 to 1 | COc1cc(-c2ccc(CN3CCN(C(C)=O)CC3)cc2)ccc1Nc1nc(NC2CCCC2)c2c(C#N)c[nH]c2n1 [Example 41, 2-((4′-((4-acetylpiperazin-1-yl)methyl)-3-methoxy-[1,1′-biphenyl]-4-yl)amino)-4-(cyclopentylamino)-7H-pyrrolo[2,3-d] pyrimidine-5-carbonitrile] |
